This experiment has as its system isolated rat bladder strips. Description: Inhibition of contractions of isolated rat bladder strips. The following applies: for IC50: 0.5 h; for inhibition at 30 µM: read-out: % Inhibition of Contractility @ 30 μM. As to the method:
The compounds of the examples were tested to determine their ability to inhibit contractions of isolated rat bladder strips. See Foster, C. […] Malmgren, A. et al. J.Urol.
Male Sprague-Dawley rats (150-200 g) were obtained from ACE animal suppliers. Animals were allowed free access to food and water.
Animals were euthanized by CO2 asphyxiation followed by a bilateral thoracotomy. […] The bladder was opened and then cut into strips 1-2 mm in width and 7-10 mm in length. The strips were subsequently suspended in a 10 ml tissue bath under an initial resting tension of 1.5 g. The strips were held in place by two surgical clips one of which was attached to a fixed hook while the other was attached to an isometric force transducer. […] The carbachol was then washed out and the tissue allowed to relax to its resting level of activity. Following a further 30 minute period of recovery an additional 15 mM KCl were introduced into the tissue bath. […] Following stabilization of this enhanced level of contractile activity, incremental increases in the concentration of test compound or vehicle were introduced into the tissue bath. Contractile activity was measured for each compound or vehicle concentration during the last minute of a 30 minute challenge.
Isometric force developed by the bladder strips was measured using a force transducer and recorded on a polygraph. Contractile activity was assessed by measuring either the average amplitude of the contractions (baseline to peak force) occurring during a one minute period or, preferably, by integrating the contractile activity with respect to time (one minute measuring period).
The percentage inhibition of contractile activity evoked by each concentration of a given test compounds was used to generate a concentration-response curve.

Setting [1] is: concentration eliciting 50% inhibition of pre-drug contractile activity, strips stimulated with additional 15 mM KCl, 30 minute challenge per concentration, read-out: IC50.
Where [2] appears, read: maximum percentage inhibition of contractile activity, 30 μM, strips stimulated with additional 15 mM KCl.

Read-outs that look alike come from different tables or passages of the source.

For orientation: IC50 means the point on the concentration scale where inhibition reaches its midpoint. Consider `O=C(Cc1ccncc1)Nc1ccc2oc3c(c2c1)CCCCCC3` [Example 78, N-(6,7,8,9,10,11-HEXAHYDROBENZO[B]CYCLOOCTA[D]FURAN-2-YL)-2-PYRIDIN-4-YLACETAMIDE], for which the IC50 fell in the range of 10 to 14 µM. `O=C(CN1CCOCC1)Nc1ccc2oc3c(c2c1)CCCCC3` [Example 40, 2-MORPHOLIN-4-YL-N-7,8,9,10-TETRAHYDRO-6H-BENZO[b]CYCLOHEPTA[D]FURAN-2-YLACETAMIDE] displayed an IC50 of 1 to 3 µM. The inhibition is the relative decrease from the control value, in per cent. As to `O=C(Cc1ccccc1)Nc1ccc2oc3c(c2c1)CCCCCC3` [Example 75, N-(6,7,8,9,10,11-HEXAHYDROBENZO[B]CYCLOOCTA[D]FURAN-2-YL)-2-PHENYLACETAMIDE], the inhibition at 30 µM was in the range of 30 to 40%. Still for that read-out and setting: the same measure for `CC(C)(C)OCC(=O)Nc1ccc2oc3c(c2c1)CCCCC3` [Example 48, 2-TERT-BUTOXY-N-7,8,9,10-TETRAHYDRO-6H-BENZO[B]CYCLOHEPTA[D]FURAN-2-YLACETAMIDE]: 10 to 15%. Turning to `COc1cccc(OC)c1C(=O)Nc1ccc2oc3c(c2c1)CCCCCC3` [Example 76, N-(6,7,8,9,10,11-HEXAHYDROBENZO[B]CYCLOOCTA[D]FURAN-2-YL)-2,6-DIMETHOXYBENZAMIDE], under setting [1], the IC50 lay within 7 to 14 µM. With `O=C(Nc1ccc2oc3c(c2c1)CCCCC3)[C@@H]1CCCN1` [Example 57, N-7,8,9,10-TETRAHYDRO-6H-BENZO[B]CYCLOHEPTA[D]FURAN-2-YL-L-PROLINAMIDE], the inhibition at 30 µM under setting [2] lay within 20 to 30%. The same measure, in the same setting: the same measure for `C[C@H](NC(=O)[C@H](Cc1ccccc1)NC(=O)OCc1ccccc1)C(=O)Nc1ccc2oc3c(c2c1)CCCCC3` [Example 58, N-[(BENZYLOXY)CARBONYL]-L-PHENYLALANYL-N^1-7,8,9,10-TETRAHYDRO-6H-BENZO[B]CYCLOHEPTA[D]FURAN-2-YL-L-ALANINAMIDE]: 30 to 40%. Turning to `CC(C)(C)c1ccc(C(=O)Nc2ccc3oc4c(c3c2)CCCCCC4)cc1` [Example 68, 4-TERT-BUTYL-N-(6,7,8,9,10,11-HEXAHYDROBENZO[B]CYCLOOCTA[D]FURAN-2-YL)BENZAMIDE], the inhibition at 30 µM under setting [2] fell in the range of 20 to 40%. Take `O=C(Nc1ccc2oc3c(c2c1)CCCCCC3)c1cccs1` [Example 67, N-(6,7,8,9,10,11-HEXAHYDROBENZO[B]CYCLOOCTA[D]FURAN-2-YL)THIOPHENE-2-CARBOXAMIDE]: under setting [1], the IC50 was in the range of 0.6 to 0.8 µM. Take `CC(C)OC(=O)Nc1ccc2oc3c(c2c1)CCCCCC3` [Example 88, ISOPROPYL 6,7,8,9,10,11-HEXAHYDROBENZO[B]CYCLOOCTA[D]FURAN-2-YLCARBAMATE]: under setting [2], the inhibition at 30 µM is 20 to 30%.

Turning to `CN(CCc1ccccn1)CC(=O)Nc1ccc2oc3c(c2c1)CCCCC3` [Example 42, N^2-METHYL-N^2-(2-PYRIDIN-2-YLETHYL)-N^1-7,8,9,10-TETRAHYDRO-6H-BENZO[B]CYCLOHEPTA[D]FURAN-2-YLGLYCINAMIDE], the inhibition at 30 µM was 30 to 40%. Consider `CCN(C)CC(=O)Nc1ccc2oc3c(c2c1)CCCCC3` [Example 46, N^2-ETHYL-N^2-METHYL-N′-7,8,9,10-TETRAHYDRO-6H-BENZO[B]CYCLOHEPTA[D]FURAN-2-YLGLYCINAMIDE], for which the IC50 fell in the range of 7 to 9 µM.

In the case of `CN(C)C(=O)Nc1ccc2oc3c(c2c1)CCCCCC3` [Example 87, N′-(6,7,8,9,10,11-HEXAHYDROBENZO[B]CYCLOOCTA[D]FURAN-2-YL)-N,N-DIMETHYLUREA], the inhibition at 30 µM under setting [2] is 25 to 35%. Consider `CCCCCC(=O)Nc1ccc2oc3c(c2c1)CCCC3` [Example 22, N-(6,7,8,9-TETRAHYDRODIBENZO[B,D]FURAN-2-YL)HEXANAMIDE], for which, under setting [1], the IC50 lay in the range of 1 to 3 µM. As for `CCC(=O)Nc1ccc2oc3c(c2c1)CCCCC3` [Example 34, N-(7,8,9,10-TETRAHYDRO-6H-BENZO[B]CYCLOHEPTA[D]FURAN-2-YL)PROPANAMIDE], the half-maximal inhibitory concentration (IC50) under setting [1] fell in the range of 0.5 to 0.8 µM.

`CCCCC(=O)Nc1ccc2oc3c(c2c1)CCCCC3` [Example 31, N-(7,8,9,10-TETRAHYDRO-6H-BENZO[B]CYCLOHEPTA[d]FURAN-2-YL)PENTANAMIDE]: the IC50 under setting [1] was in the range of 3 to 5 µM. In turn, `O=C(CN1CCC2(CC1)OCCO2)Nc1ccc2oc3c(c2c1)CCCCC3` [Example 43, 2-(1,4-DIOXA-8-AZASPIRO[4.5]DEC-8-YL)-N-7,8,9,10-TETRAHYDRO-6H-BENZO[b]CYCLOHEPTA[D]FURAN-2-YLACETAMIDE] came in with an IC50 of 1 to 3 µM. Take `O=C(Cc1cccs1)Nc1ccc2oc3c(c2c1)CCCCC3` [Example 37, N-(7,8,9,10-TETRAHYDRO-6H-BENZO[B]CYCLOHEPTA[D]FURAN-2-YL)-2-THIEN-2-YLACETAMIDE]: the inhibition at 30 µM fell in the range of 20 to 40%. With `O=C(Nc1ccc2oc3c(c2c1)CCCCCC3)c1ccncc1` [Example 77, N-(6,7,8,9,10,11-HEXAHYDROBENZO[B]CYCLOOCTA[D]FURAN-2-YL)ISONICOTINAMIDE], the inhibition at 30 µM under setting [2] was in the range of 30 to 50%. `CN1CCN(CC(=O)Nc2ccc3oc4c(c3c2)CCCCC4)CC1` [Example 44, 2-(4-METHYLPIPERAZIN-1-YL)-N-7,8,9,10-TETRAHYDRO-6H-BENZO[B]CYCLOHEPTA[D]FURAN-2-YLACETAMIDE] had an IC50 of 1 to 3 µM. As for `CC(CC(=O)Nc1ccc2oc3c(c2c1)CCCCCC3)CC(C)(C)C` (stereo not drawn) [Example 66, N-(6,7,8,9,10,11-HEXAHYDROBENZO[B]CYCLOOCTA[D]FURAN-2-YL)-3,5,5-TRIMETHYLHEXANAMIDE], the inhibition at 30 µM under setting [2] fell in the range of 5 to 20%. Turning to `C[C@H](NC(=O)OCc1ccccc1)C(=O)Nc1ccc2oc3c(c2c1)CCCCC3` [Example 49, BENZYL [(1S)-1-METHYL-2-OXO-2-(7,8,9,10-TETRAHYDRO-6H-BENZO[B]CYCLOHEPTA[D]FURAN-2-YLAMINO)ETHYL]CARBAMATE], under setting [2], the inhibition at 30 µM lay in the range of 30 to 40%. Compound `O=C(CN1CCN(c2ncccn2)CC1)Nc1ccc2oc3c(c2c1)CCCCC3` [Example 50, 2-(4-PYRIMIDIN-2-YLPIPERAZIN-1-YL)-N-7,8,9,10-TETRAHYDRO-6H-BENZO[B]CYCLOHEPTA[D]FURAN-2-YLACETAMIDE] had an IC50 of 3 to 5 µM. Regarding `O=C(Nc1ccc2oc3c(c2c1)CCCC3)c1ccc(C(F)(F)F)cc1` [Example 20, N-(6,7,8,9-TETRAHYDRODIBENZO[B,D]FURAN-2-YL)-4-(TRIFLUOROMETHYL)BENZAMIDE], the inhibition at 30 µM under setting [2] was in the range of 15 to 40%.

Turning to `C[C@H](NC(=O)OC(C)(C)C)C(=O)Nc1ccc2oc3c(c2c1)CCCCC3` [Example 56, TERT-BUTYL [(1S)-1-METHYL-2-OXO-2-(7,8,9,10-TETRAHYDRO-6H-BENZO[B]CYCLOHEPTA[D]FURAN-2-YLAMINO)ETHYL]CARBAMATE], the IC50 under setting [1] is 0.3 to 0.6 µM. Same read-out and setting: the same measure for `O=C(CCc1ccccc1)Nc1ccc2oc3c(c2c1)CCCCC3` [Example 36, 3-PHENYL-N-(7,8,9,10-TETRAHYDRO-6H-BENZO[B]CYCLOHEPTA[D]FURAN-2-YL)PROPANAMIDE]: 3 to 5 µM. Take `CN(CCO)CC(=O)Nc1ccc2oc3c(c2c1)CCCCC3` [Example 47, N^2-(2-HYDROXYETHYL)-N^2-METHYL-N′-7,8,9,10-TETRAHYDRO-6H-BENZO[B]CYCLOHEPTA[D]FURAN-2-YLGLYCINAMIDE]: the inhibition at 30 µM came out at 10%. As to `CC(=O)N1CCC[C@H]1C(=O)Nc1ccc2oc3c(c2c1)CCCCC3` [Example 60, 1-ACETYL-N-7,8,9,10-TETRAHYDRO-6H-BENZO[B]CYCLOHEPTA[D]FURAN-2-YL-L-PROLINAMIDE], the IC50 under setting [1] was 1.3 to 2.5 µM. In the case of `CC(=O)Nc1ccc2oc3c(c2c1)CCCCCC3` [Example 73, N-(6,7,8,9,10,11-HEXAHYDROBENZO[B]CYCLOOCTA[D]FURAN-2-YL)ACETAMIDE], the IC50 under setting [1] lay in the range of 0.4 to 1.1 µM. For `O=C(CCc1ccccc1)Nc1ccc2oc3c(c2c1)CCCC3` [Example 21, 3-PHENYL-N-(6,7,8,9-TETRAHYDRODIBENZO[B,D]FURAN-2-YL)PROPANAMIDE], the inhibition at 30 µM under setting [2] lay within 10 to 30%. Regarding `CC(C)(C)OC(=O)N[C@@H](Cc1ccncc1)C(=O)Nc1ccc2oc3c(c2c1)CCCCC3` [Example 55, TERT-BUTYL [(1S)-2-OXO-1-(PYRIDIN-4-YLMETHYL)-2-(7,8,9,10-TETRAHYDRO-6H-BENZO[B]CYCLOHEPTA[D]FURAN-2-YLAMINO)ETHYL]CARBAMATE], under setting [1], the IC50 lay within 7 to 10 µM. For the compound `NCC(=O)Nc1ccc2oc3c(c2c1)CCCCC3` [Example 52, N^1-7,8,9,10-TETRAHYDRO-6H-BENZO[B]CYCLOHEPTA[D]FURAN-2-YLGLYCINAMIDE], the inhibition at 30 µM fell in the range of 20 to 30%. For the compound `CCCCCC(=O)Nc1ccc2oc3c(c2c1)CCCCCC3` [Example 71, N-(6,7,8,9,10,11-HEXAHYDROBENZO[B]CYCLOOCTA[D]FURAN-2-YL)HEXANAMIDE], the IC50 under setting [1] is 0.2 to 1 µM. Regarding `O=C(COCCO)Nc1ccc2oc3c(c2c1)CCCCC3` [Example 45, 2-(2-HYDROXYETHOXY)-N-7,8,9,10-TETRAHYDRO-6H-BENZO[B]CYCLOHEPTA[D]FURAN-2-YLACETAMIDE], the inhibition at 30 µM fell in the range of 15 to 25%. On the same count and under the same terms, the same measure for `O=C(CCl)Nc1ccc2oc3c(c2c1)CCCCC3` [Example 39, 2-CHLORO-N-7,8,9,10-TETRAHYDRO-6H-BENZO[B]CYCLOHEPTA[D]FURAN-2-YLACETAMIDE]: 15 to 35%. Turning to `O=C(Nc1ccc2oc3c(c2c1)CCCCC3)c1ccc(C(F)(F)F)cc1` [Example 38, N-7,8,9,10-TETRAHYDRO-6H-BENZO[B]CYCLOHEPTA[D]FURAN-2-yl-4-(TRIFLUOROMETHYL)BENZAMIDE], the inhibition at 30 µM under setting [2] lay in the range of 5 to 10%.

Values taken from patent US7601856B2 (Wyeth, priority 2006, dated 2009).
